# Laboratory results taken from patent US10287301B2 (Achillion Pharmaceuticals, Inc., priority 2015, dated 2019).
# Biological target: Human Factor D (Homo sapiens (Human), UniProt P00746)
# Experiment: Human Factor D Assay
# Type: biochemical
# Settings: Human Factor D, Table 3; read-out: IC50
# In short: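 Thioester cleavage assay: human Factor D (serum-derived, 80 nM final), substrate Z-L-Lys-SBzl with DTNB, both 100 μM final, after 5 min compound preincubation at room temperature.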
# Human Factor D, sequence (P00746 26-253): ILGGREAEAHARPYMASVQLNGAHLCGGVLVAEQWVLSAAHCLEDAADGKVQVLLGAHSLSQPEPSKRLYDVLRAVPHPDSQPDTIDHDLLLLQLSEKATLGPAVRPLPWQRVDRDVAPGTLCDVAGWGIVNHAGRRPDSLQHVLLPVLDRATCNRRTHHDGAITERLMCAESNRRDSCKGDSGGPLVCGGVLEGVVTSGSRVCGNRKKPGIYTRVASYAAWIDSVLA
row,SMILES,IC50
1,"CC(=O)Nc1ncc(-c2ccc3c(c2)c(C(C)=O)nn3CC(=O)N2C[C@H](F)C[C@H]2C(=O)Nc2cccc(Br)n2)cn1 [Compound 597, (2S,4R)-1-(2-(5-(2-Acetamidopyrimidin-5-yl)-3-acetyl-1H-indazol-1-yl)acetyl)-N-(6-bromopyridin-2-yl)-4-fluoropyrrolidine-2-carboxamide]",< 1000 nM
2,"CC(=O)c1nn(CC(=O)N2C[C@H](F)C[C@H]2C(=O)Nc2cccc(Br)n2)c2ccc(-c3cnc(C(=O)O)nc3)cc12 [Compound 598, 5-(3-Acetyl-1-(2-((2S,4R)-2-((6-bromopyridin-2-yl)carbamoyl)-4-fluoropyrrolidin-1-yl)-2-oxoethyl)-1H-indazol-5-yl)pyrimidine-2-carboxylic acid]",< 1000 nM
3,"CC(=O)c1nn(CC(=O)N2C[C@H](F)C[C@H]2C(=O)Nc2cccc(Br)n2)c2ccc(-c3cnc(C(N)=O)nc3)cc12 [Compound 599, 5-(3-Acetyl-1-(2-((2S,4R)-2-((6-bromopyridin-2-yl)carbamoyl)-4-fluoropyrrolidin-1-yl)-2-oxoethyl)-1H-indazol-5-yl)pyrimidine-2-carboxamide]",< 1000 nM
4,"CC(=O)c1nn(CC(=O)N2C[C@H](F)C[C@H]2C(=O)Nc2cccc(-c3ncco3)n2)c2ccc(-c3cnc(C)nc3)cc12 [Compound 600, (2S,4R)-1-(2-(3-Acetyl-5-(2-methylpyrimidin-5-yl)-1H-indazol-1-yl)acetyl)-4-fluoro-N-(6-(oxazol-2-yl)pyridin-2-yl)pyrrolidine-2-carboxamide]",< 1000 nM
5,"CC(=O)c1nn(CC(=O)N2C[C@H](F)C[C@H]2C(=O)Nc2nc(OCC(F)(F)F)ccc2C)c2ccc(-c3cnc(C)nc3)cc12 [Compound 601, (2S,4R)-1-(2-(3-Acetyl-5-(2-methylpyrimidin-5-yl)-1H-indazol-1-yl)acetyl)-4-fluoro-N-(3-methyl-6-(2,2,2-trifluoroethoxy)pyridin-2-yl)pyrrolidine-2-carboxamide]",< 1000 nM
6,"CC(=O)c1nn(CC(=O)N2C[C@H](F)C[C@H]2C(=O)Nc2nc(C(C)(F)F)ccc2C)c2ccc(-c3cnc(C)nc3)cc12 [Compound 602, (2S,4R)-1-(2-(3-Acetyl-5-(2-methylpyrimidin-5-yl)-1H-indazol-1-yl)acetyl)-N-(6-(1,1-difluoroethyl)-3-methylpyridin-2-yl)-4-fluoropyrrolidine-2-carboxamide]",< 1000 nM
7,"CC(=O)c1nn(CC(=O)N2[C@@H]3C[C@@H]3C[C@H]2C(=O)Nc2nc(Br)ccc2C2CC2)c2ccc(-c3cnc(C)nc3)cc12 [Compound 603, (1R,3S,5R)-2-(2-(3-Acetyl-5-(2-methylpyrimidin-5-yl)-1H-indazol-1-yl)acetyl)-N-(6-bromo-3-cyclopropyl-pyridin-2-yl)-2-azabicyclo[3.1.0]hexane-3-carboxamide]",< 1000 nM
8,"CC(=O)c1nn(CC(=O)N2C[C@H](F)C[C@H]2C(=O)Nc2cccc(Br)n2)c2ccc(-c3cnc(O)nc3)cc12 [Compound 604, (2S,4R)-1-(2-(3-Acetyl-5-(2-hydroxypyrimidin-5-yl)-1H-indazol-1-yl)acetyl)-N-(6-bromopyridin-2-yl)-4-fluoropyrrolidine-2-carboxamide]",< 1000 nM
9,"CC(=O)c1nn(CC(=O)N2C[C@@H]3C[C@@H]3[C@H]2C(=O)Nc2nc(Br)ccc2C)c2ccc(-c3cnc(C)nc3)cc12 [Compound 605, (1S,2S,5R)-3-(2-(3-Acetyl-5-(2-methylpyrimidin-5-yl)-1H-indazol-1-yl)acetyl)-N-(6-bromo-3-methylpyridin-2-yl)-3-azabicyclo[3.1.0]hexane-2-carboxamide]",< 1000 nM
10,"COCc1ccc(Br)nc1NC(=O)[C@@H]1C[C@@H](F)CN1C(=O)Cn1nc(C(C)=O)c2cc(-c3cnc(C)nc3)ccc21 [Compound 606, (2S,4R)-1-(2-(3-Acetyl-5-(2-methylpyrimidin-5-yl)-1H-indazol-1-yl)acetyl)-N-(6-bromo-3-(methoxymethyl)pyridin-2-yl)-4-fluoropyrrolidine-2-carboxamide]",< 1000 nM
11,"COC(=O)c1ccc(Br)nc1NC(=O)[C@@H]1C[C@@H](F)CN1C(=O)Cn1nc(C(C)=O)c2cc(-c3cnc(C)nc3)ccc21 [Compound 607, Methyl 2-((2S,4R)-1-(2-(3-Acetyl-5-(2-methylpyrimidin-5-yl)-1H-indazol-1-yl)acetyl)-4-fluoropyrrolidine-2-carboxamido)-6-bromonicotinate]",< 1000 nM
12,"CC(=O)c1nn(CC(=O)N2C[C@H](F)C[C@H]2C(=O)Nc2cccc(Br)n2)c2c(C)cc(-c3cnc(C)nc3)cc12 [Compound 608, (2S,4R)-1-(2-(3-Acetyl-7-methyl-5-(2-methylpyrimidin-5-yl)-1H-indazol-1-yl)acetyl)-N-(6-bromopyridin-2-yl)-4-fluoropyrrolidine-2-carboxamide]",< 1000 nM
13,"CC(=O)c1nn(CC(=O)N2C[C@H](F)C[C@H]2C(=O)Nc2cccc(Br)n2)c2cc(C)c(-c3cnc(C)nc3)cc12 [Compound 609, (2S,4R)-1-(2-(3-Acetyl-6-methyl-5-(2-methylpyrimidin-5-yl)-1H-indazol-1-yl)acetyl)-N-(6-bromopyridin-2-yl)-4-fluoropyrrolidine-2-carboxamide]",< 1000 nM
14,"CC(=O)c1nn(CC(=O)N2[C@@H]3C[C@@H]3C[C@H]2C(=O)NC2CCN(CC(F)(F)F)C2)c2ccc(-c3cnc(C)nc3)cc12 (stereo partly drawn) [Compound 611, (1R, 3S, 5R)-2-(2-(3-acetyl-5-(2-methylpyrimidin-5-yl)-1H-indazol-1-yl)acetyl)-N-(1-(2,2,2-trifluoroethyl)pyrrolidin-3-yl)-2-azabicyclo [3.1.0] hexane-3-carboxamide]",< 1000 nM
15,"CC(=O)c1nn(CC(=O)N2C[C@H](F)C[C@H]2C(=O)NCC23CC4CC(CC(C4)C2)C3)c2ccc(-c3cnc(C)nc3)cc12 [Compound 612, (2S,4R)-1-(2-(3-Acetyl-5-(2-methylpyrimidin-5-yl)-1H-indazol-1-yl)acetyl)-N-(((3S,5S,7S)-adamantan-1-yl)methyl)-4-fluoropyrrolidine-2-carboxamide]",< 1000 nM
16,"CC(=O)c1nn(CC(=O)N2C[C@H](F)C[C@H]2C(=O)Nc2nc(Br)ccc2C(=O)O)c2ccc(-c3cnc(C)nc3)cc12 [Compound 615, 2-((2S,4R)-1-(2-(3-Acetyl-5-(2-methylpyrimidin-5-yl)-1H-indazol-1-yl)acetyl)-4-fluoropyrrolidine-2-carboxamido)-6-bromonicotinic acid]",< 1000 nM
17,"CC(=O)c1nn(CC(=O)N2[C@H](C(=O)Nc3nc(Br)ccc3C3CC3)C[C@@]3(C)C[C@@H]23)c2ccc(-c3cnc(C)nc3)cc12 [Compound 616, (1R,3S,5R)-2-(2-(3-Acetyl-5-(2-methylpyrimidin-5-yl)-1H-indazol-1-yl)acetyl)-N-(6-bromo-3-cyclopropyl-pyridin-2-yl)-5-methyl-2-azabicyclo[3.1.0]hexane-3-carboxamide]",< 1000 nM
18,"CC(=O)c1nn(CC(=O)N2C3CC[C@@H](C3)[C@H]2C(=O)Nc2nc(Br)ccc2C)c2ccc(-c3cnc(C)nc3)cc12 [Compound 617, (3S,4S)-2-(2-(3-Acetyl-5-(2-methylpyrimidin-5-yl)-1H-indazol-1-yl)acetyl)-N-(6-bromo-3-methylpyridin-2-yl)-2-azabicyclo[2.2.1]heptane-3-carboxamide]",< 1000 nM
19,"CC(=O)c1nn(CC(=O)N2[C@H](C(=O)Nc3nc(Br)ccc3C)C[C@@]3(C)C[C@@H]23)c2ccc(-c3cnc(N)nc3)cc12 [Compound 620, (1R,3S,5R)-2-(2-(3-Acetyl-5-(2-aminopyrimidin-5-yl)-1H-indazol-1-yl)acetyl)-N-(6-bromo-3-methylpyridin-2-yl)-5-methyl-2-azabicyclo[3.1.0]hexane-3-carboxamide]",< 1000 nM
20,"CC(=O)c1nn(CC(=O)N2[C@H](C(=O)NCC(F)=C(C)C)C[C@@]3(C)C[C@@H]23)c2ccc(-c3cnc(C)nc3)cc12 [Compound 621, (1R,3S,5R)-2-(2-(3-acetyl-5-(2-methylpyrimidin-5-yl)-1H-indazol-1-yl)acetyl)-N-(2-fluoro-3-methylbut-2-en-1-yl)-5-methyl-2-azabicyclo[3.1.0] hexane-3-carboxamide]",< 1000 nM
21,"CC(=O)c1nn(CC(=O)N2[C@H](C(=O)N[C@@H](C)C(F)=C(C)C)C[C@@]3(C)C[C@@H]23)c2ccc(-c3cnc(C)nc3)cc12 [Compound 622, (1R,3S,5R)-2-(2-(3-acetyl-5-(2-methylpyrimidin-5-yl)-1H-indazol-1-yl)acetyl)-N-((S)-3-fluoro-4-methylpent-3-en-2-yl)-5-methyl-2-azabicyclo[3.1.0] hexane-3-carboxamide]",< 1000 nM
22,"CC(=O)c1nn(CC(=O)N2[C@H](C(=O)N[C@H](C)C(F)=C(C)C)C[C@@]3(C)C[C@@H]23)c2ccc(-c3cnc(C)nc3)cc12 [Compound 623, (1R,3S,5R)-2-(2-(3-acetyl-5-(2-methylpyrimidin-5-yl)-1H-indazol-1-yl)acetyl)-N-((R)-3-fluoro-4-methylpent-3-en-2-yl)-5-methyl-2-azabicyclo[3.1.0] hexane-3-carboxamide]",< 1000 nM
23,"CC(=O)c1nn(CC(=O)N2[C@H](C(=O)Nc3cccc(OC(F)(F)F)n3)C[C@@]3(C)C[C@@H]23)c2ccc(-c3cnc(C)nc3)cc12 [Compound 624, (1R,3S,5R)-2-(2-(3-acetyl-5-(2-methylpyrimidin-5-yl)-1H-indazol-1-yl)acetyl)-5-methyl-N-(6-(trifluoromethoxy)pyridin-2-yl)-2-azabicyclo[3.1.0] hexane-3-carboxamide]",< 1000 nM
24,CC(=O)c1nn(CC(=O)N2[C@H](C(=O)Nc3ccn(CC(F)(F)F)n3)C[C@@]3(C)C[C@@H]23)c2ccc(-c3cnc(C)nc3)cc12 [Compound 625],< 1000 nM
25,"CC(=O)c1nn(CC(=O)N2[C@H](C(=O)Nc3cccc(OC(F)(F)F)c3F)C[C@@]3(C)C[C@@H]23)c2ccc(-c3cnc(C)nc3)cc12 [Compound 630, (1R,3S,5R)-2-(2-(3-acetyl-5-(2-methylpyrimidin-5-yl)-1H-indazol-1-yl)acetyl)-N-(2-fluoro-3-(trifluoromethoxy)phenyl)-5-methyl-2-azabicyclo[3.1.0] hexane-3-carboxamide]",< 1000 nM
